In brackets after ≈: the same amount, converted by molar mass.
Experiments:
[1] = test system: Mycolicibacterium smegmatis; assay: Antimycobacterial activity against Mycobacterium smegmatis CMCC 93202 after 72 hrs by serial double dilution technique; format: functional; settings: CMCC 93202, 72 h
[2] = test system: Mycobacterium tuberculosis; assay: microbe, parasite or virus in culture; format: functional; settings: H37Rv ATCC 27294, 168 h
Description: Antimycobacterial activity against Mycobacterium tuberculosis H37Rv ATCC 27294 after 7 days by serial double dilution technique

[3] = Cytotoxicity against african green monkey Vero cells after 72 hrs by MTT assat; settings: chlorocebus sabaeus
[4] = test system: Mycobacterium tuberculosis; assay: Ratio of compound MIC to 8-OCH3 ciprofloxacin MIC for Mycobacterium tuberculosis H37Rv ATCC 27294; format: functional

COc1c(N2CCNCC2)c(F)cc2c(=O)c(C(=O)O)cn(C3CC3)c12
MIC [1]: 0.54 µM (≈ 0.195 µg/mL)
MIC [2]: 0.22 µM (≈ 0.0795 µg/mL)
CC50 at 72 h ([3]; Vero cells): 242 µM

CO/N=C1\C(=O)N(CCN2CCN(c3c(F)cc4c(=O)c(C(=O)O)cn(C5CC5)c4c3OC)CC2)c2ccccc21
MIC [1]: 2.77 µM (≈ 1.56 µg/mL)
MIC [2]: 1.14 µM (≈ 0.642 µg/mL)
CC50 at 72 h ([3]; Vero cells): 306 µM

COc1c(N2CCN(CN3C(=O)C(=O)c4ccccc43)CC2)c(F)cc2c(=O)c(C(=O)O)cn(C3CC3)c12
MIC [1]: 24 µM (≈ 12.5 µg/mL)
MIC [2]: 0.15 µM (≈ 0.0781 µg/mL)
CC50 at 72 h ([3]; Vero cells): 70.8 µM

COc1c(N2CCN(CN3C(=O)C(=O)c4cc(F)ccc43)CC2)c(F)cc2c(=O)c(C(=O)O)cn(C3CC3)c12
MIC [1]: 2.9 µM (≈ 1.56 µg/mL)
MIC [2]: 0.074 µM (≈ 0.0398 µg/mL)
CC50 at 72 h ([3]; Vero cells): 70.6 µM

COc1c(N2CCN(CN3C(=O)/C(=N\O)c4ccccc43)CC2)c(F)cc2c(=O)c(C(=O)O)cn(C3CC3)c12
MIC [1]: 2.92 µM (≈ 1.56 µg/mL)
MIC [2]: 0.15 µM (≈ 0.0803 µg/mL)
CC50 at 72 h ([3]; Vero cells): 74.4 µM

COc1c(N2CCN(CN3C(=O)/C(=N\O)c4cc(F)ccc43)CC2)c(F)cc2c(=O)c(C(=O)O)cn(C3CC3)c12
MIC [1]: 1.41 µM (≈ 0.78 µg/mL)
MIC [2]: 0.14 µM (≈ 0.0775 µg/mL)
CC50 at 72 h ([3]; Vero cells): 73.8 µM

CO/N=C1\C(=O)N(CN2CCN(c3c(F)cc4c(=O)c(C(=O)O)cn(C5CC5)c4c3OC)CC2)c2ccccc21
MIC [1]: 5.68 µM (≈ 3.12 µg/mL)
MIC [2]: 0.15 µM (≈ 0.0824 µg/mL)
CC50 at 72 h ([3]; Vero cells): 76.5 µM

CO/N=C1\C(=O)N(CN2CCN(c3c(F)cc4c(=O)c(C(=O)O)cn(C5CC5)c4c3OC)CC2)c2ccc(F)cc21
MIC [1]: 2.75 µM (≈ 1.56 µg/mL)
MIC [2]: 0.14 µM (≈ 0.0795 µg/mL)
CC50 at 72 h ([3]; Vero cells): 46.8 µM
Ratio [4]: 1.6

CCO/N=C1\C(=O)N(CN2CCN(c3c(F)cc4c(=O)c(C(=O)O)cn(C5CC5)c4c3OC)CC2)c2ccccc21
MIC [1]: 2.77 µM (≈ 1.56 µg/mL)
MIC [2]: 0.14 µM (≈ 0.0789 µg/mL)
CC50 at 72 h ([3]; Vero cells): 91.5 µM

CCO/N=C1\C(=O)N(CN2CCN(c3c(F)cc4c(=O)c(C(=O)O)cn(C5CC5)c4c3OC)CC2)c2ccc(F)cc21
MIC [1]: 2.68 µM (≈ 1.56 µg/mL)
MIC [2]: 0.55 µM (≈ 0.32 µg/mL)
CC50 at 72 h ([3]; Vero cells): 85.8 µM

COc1c(N2CCN(CN3C(=O)/C(=N\NC(N)=O)c4ccccc43)CC2)c(F)cc2c(=O)c(C(=O)O)cn(C3CC3)c12
MIC [1]: 1.35 µM (≈ 0.78 µg/mL)
MIC [2]: 0.14 µM (≈ 0.0809 µg/mL)
CC50 at 72 h ([3]; Vero cells): 266 µM
Ratio [4]: 1.6

COc1c(N2CCN(CN3C(=O)/C(=N\NC(N)=O)c4cc(F)ccc43)CC2)c(F)cc2c(=O)c(C(=O)O)cn(C3CC3)c12
MIC [1]: 2.62 µM (≈ 1.56 µg/mL)
MIC [2]: 0.13 µM (≈ 0.0774 µg/mL)
CC50 at 72 h ([3]; Vero cells): 168 µM
Ratio [4]: 1.6

COc1c(N2CCN(CN3C(=O)/C(=N\NC(N)=S)c4ccccc43)CC2)c(F)cc2c(=O)c(C(=O)O)cn(C3CC3)c12
MIC [1]: 2.63 µM (≈ 1.56 µg/mL)
MIC [2]: 0.13 µM (≈ 0.0772 µg/mL)
CC50 at 72 h ([3]; Vero cells): 154 µM
Ratio [4]: 1.6

COc1c(N2CCN(CCN3C(=O)C(=O)c4ccccc43)CC2)c(F)cc2c(=O)c(C(=O)O)cn(C3CC3)c12
MIC [1]: 5.84 µM (≈ 3.12 µg/mL)

COc1c(N2CCN(CCN3C(=O)C(=O)c4cc(F)ccc43)CC2)c(F)cc2c(=O)c(C(=O)O)cn(C3CC3)c12
MIC [1]: 2.83 µM (≈ 1.56 µg/mL)

COc1c(N2CCN(CCN3C(=O)/C(=N\O)c4ccccc43)CC2)c(F)cc2c(=O)c(C(=O)O)cn(C3CC3)c12
MIC [1]: 11.4 µM (≈ 6.25 µg/mL)

COc1c(N2CCN(CCN3C(=O)/C(=N\O)c4cc(F)ccc43)CC2)c(F)cc2c(=O)c(C(=O)O)cn(C3CC3)c12
MIC [1]: 22.1 µM (≈ 12.5 µg/mL)

CO/N=C1\C(=O)N(CCN2CCN(c3c(F)cc4c(=O)c(C(=O)O)cn(C5CC5)c4c3OC)CC2)c2ccc(F)cc21
MIC [1]: 2.68 µM (≈ 1.56 µg/mL)
MIC [2]: 1.1 µM (≈ 0.64 µg/mL)
CC50 at 72 h ([3]; Vero cells): 12.8 µM

COc1c(N2CCN(CCN3C(=O)/C(=N\NC(N)=S)c4cc(F)ccc43)CC2)c(F)cc2c(=O)c(C(=O)O)cn(C3CC3)c12
MIC [1]: 2.5 µM (≈ 1.56 µg/mL)
MIC [2]: 1.02 µM (≈ 0.638 µg/mL)
CC50 at 72 h ([3]; Vero cells): 57 µM

CCO/N=C1\C(=O)N(CCN2CCN(c3c(F)cc4c(=O)c(C(=O)O)cn(C5CC5)c4c3OC)CC2)c2ccccc21
MIC [1]: 5.41 µM (≈ 3.12 µg/mL)

CCO/N=C1\C(=O)N(CCN2CCN(c3c(F)cc4c(=O)c(C(=O)O)cn(C5CC5)c4c3OC)CC2)c2ccc(F)cc21
MIC [1]: 1.31 µM (≈ 0.78 µg/mL)

COc1c(N2CCN(CCN3C(=O)/C(=N\NC(N)=O)c4ccccc43)CC2)c(F)cc2c(=O)c(C(=O)O)cn(C3CC3)c12
MIC [1]: 5.28 µM (≈ 3.12 µg/mL)

COc1c(N2CCN(CCN3C(=O)/C(=N\NC(N)=O)c4cc(F)ccc43)CC2)c(F)cc2c(=O)c(C(=O)O)cn(C3CC3)c12
MIC [1]: 5.12 µM (≈ 3.12 µg/mL)

COc1c(N2CCN(CCN3C(=O)/C(=N\NC(N)=S)c4ccccc43)CC2)c(F)cc2c(=O)c(C(=O)O)cn(C3CC3)c12
MIC [1]: 2.57 µM (≈ 1.56 µg/mL)
MIC [2]: 1.05 µM (≈ 0.638 µg/mL)
CC50 at 72 h ([3]; Vero cells): 56.1 µM

O=C(O)c1cn(C2CC2)c2cc(N3CCNCC3)c(F)cc2c1=O [CIPROFLOXACIN]
MIC [1]: 2.36 µM (≈ 0.782 µg/mL)
MIC [2]: 0.97 µM (≈ 0.321 µg/mL)
CC50 at 72 h ([3]; vero): 601 µM

NNC(=O)c1ccncc1 [ISONIAZID]
MIC [1]: 5.69 µM (≈ 0.78 µg/mL)
MIC [2]: 0.29 µM (≈ 0.0398 µg/mL)

CO[C@H]1/C=C/O[C@@]2(C)Oc3c(C)c(O)c4c(O)c(c(/C=N/N5CCN(C)CC5)c(O)c4c3C2=O)NC(=O)/C(C)=C\C=C\[C@H](C)[C@H](O)[C@@H](C)[C@@H](O)[C@@H](C)[C@H](OC(C)=O)[C@@H]1C [RIFAMPIN]
MIC [1]: 3.79 µM (≈ 3.12 µg/mL)
MIC [2]: 0.19 µM (≈ 0.156 µg/mL)
CC50 at 72 h ([3]; Vero cells): 180 µM

— ChEMBL document CHEMBL1649408, “Synthesis and in vitro antimycobacterial activity of 8-OCH(3) ciprofloxacin methylene and ethylene isatin derivatives” (Eur J Med Chem, 2011)
